Earlier results, collected in patent US20240139293A1, “Compositions and Methods for Enhancing Anti-Viral Therapies” (XORTX THERAPEUTICS, INC., priority 2021, published 2024).

Tested on: SARS-CoV-2
Details: cited study: SARS-CoV-2 replication in vivo and in vitro

CCCN(CCC)S(=O)(=O)c1ccc(C(=O)O)cc1 [probenecid]
viral load due to Coronavirus: can decrease viral load
